For assay [1], the system named is Saccharomyces sp. The experiment in a line: (§1) Inhibition of Saccharomyces sp. alpha-glucosidase using p-nitrophenyl a-D-glucopyranoside as substrate by spectrophotometric analysis.
The nature of assay [2]: as §1.
For assay [3], the system named is Saccharomyces sp. The experiment in a line: Inhibition of Saccharomyces sp. alpha-glucosidase using p-nitrophenyl a-D-glucopyranoside as substrate at 100 ug/ml by spectrophotometric analysis.

`CC1=C(C)C(=O)O[C@@H]([C@](C)(O)[C@H]2CC[C@H]3[C@@H]4CC=C5CC=CC(=O)[C@]5(C)[C@H]4CC[C@]23C)C1`: in the assay with Saccharomyces sp. [1], the inhibition result is “Dose-dependent effect”. In assay [2], the IC50 (commonly the midpoint of a concentration-inhibition curve) was found to be 85.8 µg/mL. The compound further came in with an Imax with Saccharomyces sp. [3] of 69.7%.
As for `CC1=C(C)C(=O)O[C@@H]([C@](C)(O)C2=CC[C@@]3(O)[C@@H]4CC=C5CC=CC(=O)[C@]5(C)[C@H]4CC[C@]23C)C1`, the inhibition result in the assay with Saccharomyces sp. [1] was “Dose-dependent effect”. In addition, in assay [2], the IC50 was 38.2 µg/mL. The same compound had an Imax with Saccharomyces sp. [3] of 96.1%.
For the compound `OC[C@H]1NC[C@H](O)[C@@H](O)[C@@H]1O` [DUVOGLUSTAT], in assay [2] (read-out: IC50), the half-inhibitory concentration (IC50) was 422 µM.
Consider `CC1=C(C)C(=O)O[C@@H]([C@](C)(O)[C@H]2CC[C@@H]3[C@]2(C)CC[C@H]2[C@@]3(O)[C@H]3O[C@H]3[C@@]3(O)CC=CC(=O)[C@]23C)C1`, for which, in the assay on Saccharomyces sp. [1], the inhibition result was “Dose-dependent effect”. The IC50 in assay [2] came to 40.65 µg/mL. Moreover, the Imax with Saccharomyces sp. [3] was found to be 94.3%.

The record behind these values is ChEMBL document CHEMBL2424536, “Withanolides isolated from Withania somnifera with -glucosidase inhibition” (Med Chem Res, 2013).
